# Assay results published in ChEMBL document CHEMBL4229359, “Simple 2(5H)-furanone derivatives with selective cytotoxicity towards non-small cell lung cancer cell line A549 - Synthesis, structure-activity relationship and biological evaluation” (Eur J Med Chem, 2018).
# Activity calls are given as the source filed them. No cut-off for these calls is given here.
# Columns and labels:
# A549 [1] = assay: Cytotoxicity against human A549 cells assessed as reduction in cell viability after 72 hrs by MTT assay; assay type: functional, cell-based; settings: A549, 72 h
# BEAS-2B = assay: Cytotoxicity against human BEAS2B cells assessed as reduction in cell viability after 72 hrs by MTT assay; assay type: cell-based
# [2] = Selectivity index, ratio of IC50 for human BEAS2B cells to IC50 for human A549 cells; assay type: toxicity
# HCT-116 [3] = assay: Cytotoxicity against human HCT116 cells assessed as reduction in cell viability after 72 hrs by MTT assay; assay type: functional, cell-based; settings: HCT-116, 72 h
# HCT-116 [4] = assay: Cytotoxicity against p53-/- human HCT116 cells assessed as reduction in cell viability after 72 hrs by MTT assay; assay type: functional, cell-based; settings: HCT-116, 72 h
# HT-29 = assay: Cytotoxicity against human HT-29 cells assessed as reduction in cell viability after 72 hrs by MTT assay; assay type: functional, cell-based; settings: HT-29, 72 h
# LoVo = assay: Cytotoxicity against human LoVo cells assessed as reduction in cell viability after 72 hrs by MTT assay; assay type: functional, cell-based
# Hep 3B2 = assay: Cytotoxicity against human Hep3B cells assessed as reduction in cell viability after 72 hrs by MTT assay; assay type: functional, cell-based
# HepG2 = assay: Cytotoxicity against human HepG2 cells assessed as reduction in cell viability after 72 hrs by MTT assay; assay type: functional, cell-based; settings: HepG2, 72 h
# U2OS = assay: Cytotoxicity against human U2OS cells assessed as reduction in cell viability after 72 hrs by MTT assay; assay type: functional, cell-based
# SJSA-1 = assay: Cytotoxicity against human SJSA1 cells assessed as reduction in cell viability after 72 hrs by MTT assay; assay type: functional, cell-based; settings: SJSA-1, 72 h
# MCF7 = assay: Cytotoxicity against human MCF7 cells assessed as reduction in cell viability after 72 hrs by MTT assay; assay type: functional, cell-based; settings: MCF7, 72 h
# PC-3 = assay: Cytotoxicity against human PC3 cells assessed as reduction in cell viability after 72 hrs by MTT assay; assay type: functional, cell-based; settings: PC-3, 72 h
# DU-145 = assay: Cytotoxicity against human DU145 cells assessed as reduction in cell viability after 72 hrs by MTT assay; assay type: functional, cell-based; settings: DU-145, 72 h
# A549 [5] = assay: Cell cycle arrest in human A549 cells assessed as accumulation at G1-phase at 10 uM after 24 hrs by propidium iodide staining based flow cytometry (reference value: 59.4%); assay type: functional
# A549 [6] = assay: Cell cycle arrest in human A549 cells assessed as accumulation at S-phase at 10 uM after 24 hrs by propidium iodide staining based flow cytometry (reference value: 34.1%); assay type: functional
# A549 [7] = assay: Cell cycle arrest in human A549 cells assessed as accumulation at G2/M-phase at 10 uM after 24 hrs by propidium iodide staining based flow cytometry (reference value: 6.5%); assay type: functional
# A549 [8] = assay: Cell cycle arrest in human A549 cells assessed as accumulation at G1-phase at 10 uM after 72 hrs by propidium iodide staining based flow cytometry (reference value: 75.2 to 76%); assay type: functional
# A549 [9] = assay: Cell cycle arrest in human A549 cells assessed as accumulation at S-phase at 10 uM after 72 hrs by propidium iodide staining based flow cytometry (reference value: 16.8 to 18.5%); assay type: functional
# A549 [10] = assay: Cell cycle arrest in human A549 cells assessed as accumulation at G2/M-phase at 10 uM after 72 hrs by propidium iodide staining based flow cytometry (reference value: 6.3 to 7.2%); assay type: functional
# A549 [11] = assay: Upregulation of Cyclin-B1 protein expression in human A549 cells at 10 uM after 72 hrs by Western blot analysis; assay type: functional, cell-based
# A549 [12] = assay: Cell cycle arrest in human A549 cells assessed as accumulation at G1-phase at 20 uM after 72 hrs by propidium iodide staining based flow cytometry (reference value: 61.5%); assay type: functional
# A549 [13] = assay: Cell cycle arrest in human A549 cells assessed as accumulation at S-phase at 20 uM after 72 hrs by propidium iodide staining based flow cytometry (reference value: 31.9%); assay type: functional
# A549 [14] = assay: Cell cycle arrest in human A549 cells assessed as accumulation at G2/M-phase at 20 uM after 72 hrs by propidium iodide staining based flow cytometry (reference value: 6.7%); assay type: functional
# A549 [15] = assay: Induction of apoptosis in human A549 cells assessed as live cells at 20 uM after 72 hrs by Annexin V-FITC/propidium iodide staining based flow cytometry (reference value: 98.5%); assay type: functional
# A549 [16] = assay: Induction of apoptosis in human A549 cells assessed as early apoptotic cells at 20 uM after 72 hrs by Annexin V-FITC/propidium iodide staining based flow cytometry (reference value: 0.4%); assay type: functional
# A549 [17] = assay: Induction of apoptosis in human A549 cells assessed as late apoptotic cells at 20 uM after 72 hrs by Annexin V-FITC/propidium iodide staining based flow cytometry (reference value: 0.5%); assay type: functional
# A549 [18] = assay: Induction of apoptosis in human A549 cells assessed as necrotic cells at 20 uM after 72 hrs by Annexin V-FITC/propidium iodide staining based flow cytometry (reference value: 0.6%); assay type: functional
# A549 [19] = assay: Effect on Bad protein expression in human A549 cells at 20 uM after 72 hrs by densitometric analysis; assay type: functional, cell-based
# A549 [20] = assay: Effect on Bax protein expression in human A549 cells at 20 uM after 72 hrs by densitometric analysis; assay type: functional, cell-based
# A549 [21] = assay: Effect on Bcl2 protein expression in human A549 cells at 20 uM after 72 hrs by densitometric analysis; assay type: functional, cell-based
# A549 [22] = assay: Effect on Bcl-x protein expression in human A549 cells at 20 uM after 72 hrs by densitometric analysis; assay type: functional, cell-based
# A549 [23] = assay: Effect on Pro-caspase-3 protein expression in human A549 cells at 20 uM after 72 hrs by densitometric analysis; assay type: functional, cell-based
# A549 [24] = assay: Effect on cleaved caspase-3 protein expression in human A549 cells at 20 uM after 72 hrs by densitometric analysis; assay type: functional, cell-based
# A549 [25] = assay: Induction of apoptosis in human A549 cells assessed as caspase-3 cleavage at 20 uM after 72 hrs by Western blot analysis; assay type: functional, cell-based
# A549 [26] = assay: Anticlonogenic activity against human A549 cells at 10 uM after 24 to 72 hrs by crystal violet staining based microscopic method; assay type: functional, cell-based
smiles,measurement,setting,value
CC(C)(C)COC1OC(=O)C(Cl)=C1N1CCCCC1 (configuration not stated),IC50,A549 [1],> 400 µM
same,IC50,BEAS-2B,> 400 µM
CC(C)OC1OC(=O)C(Cl)=C1Nc1ccc(Cl)cc1 (configuration not stated),IC50,A549 [1],39.6 µM
same,IC50,BEAS-2B,77 µM
same,log(RatioIC50),[2],0.29
CC(C)(C)COC1OC(=O)C(Cl)=C1Nc1ccc(Cl)cc1 (configuration not stated),IC50,A549 [1],13.3 µM
same,IC50,BEAS-2B,30.3 µM
same,log(RatioIC50),[2],0.36
CCOC1OC(=O)C(Cl)=C1Cl (configuration not stated),IC50,A549 [1],6.3 µM
same,IC50,BEAS-2B,3.8 µM
same,log(RatioIC50),[2],0.22
CCCCOC1OC(=O)C(Cl)=C1Nc1ccc(Br)cc1 (configuration not stated),IC50,A549 [1],46.5 µM
same,IC50,BEAS-2B,42.7 µM
same,log(RatioIC50),[2],-0.04
COC1OC(=O)C(Cl)=C1Cl (configuration not stated),IC50,A549 [1],5.1 µM
same,IC50,BEAS-2B,4.6 µM
same,log(RatioIC50),[2],0.05
CC(C)(C)COC1OC(=O)C(Cl)=C1Cl (configuration not stated),IC50,A549 [1],7.7 µM
same,IC50,BEAS-2B,59 µM
same,log(RatioIC50),[2],0.88
same,IC50,HCT-116 [3],7.2 µM
same,IC50,HCT-116 [4],6.2 µM
same,IC50,HT-29,7.2 µM
same,IC50,LoVo,7.3 µM
same,IC50,Hep 3B2,27.8 µM
same,IC50,HepG2,17.6 µM
same,IC50,U2OS,38.1 µM
same,IC50,SJSA-1,11.1 µM
same,IC50,MCF7,11.2 µM
same,IC50,PC-3,6 µM
same,IC50,DU-145,26.8 µM
same,Activity,A549 [5],62.1%
same,Activity,A549 [6],32.6%
same,Activity,A549 [7],5.3%
same,Activity,A549 [8],74%
same,Activity,A549 [9],17.6%
same,Activity,A549 [10],8.4%
same,Activity,A549 [11],inactive
same,Activity,A549 [12],51.2%
same,Activity,A549 [13],40.8%
same,Activity,A549 [14],8%
same,Activity,A549 [15],77.7%
same,Activity,A549 [16],4.2%
same,Activity,A549 [17],16.1%
same,Activity,A549 [18],2.3%
same,Activity,A549 [19],inactive
same,Activity,A549 [20],inactive
same,Activity,A549 [21],inactive
same,Activity,A549 [22],inactive
same,Activity,A549 [23],inactive
same,Activity,A549 [24],inactive
same,Activity,A549 [25],inactive
same,Activity,A549 [26],Active
CC(C)(C)OC1OC(=O)C(Cl)=C1Cl (configuration not stated),IC50,A549 [1],14 µM
same,IC50,BEAS-2B,23.1 µM
same,log(RatioIC50),[2],0.22
CCCOC1OC(=O)C(Cl)=C1Cl (configuration not stated),IC50,A549 [1],3.6 µM
same,IC50,BEAS-2B,3.5 µM
same,log(RatioIC50),[2],-0.02
O=C1OC(O)C(Cl)=C1Cl (configuration not stated) [MUCOCHLORIC ACID],IC50,A549 [1],123 µM
same,IC50,BEAS-2B,45 µM
same,log(RatioIC50),[2],-0.44
same,IC50,HCT-116 [3],8.3 µM
same,IC50,HCT-116 [4],10.8 µM
same,IC50,HT-29,21.8 µM
same,IC50,LoVo,17.2 µM
same,IC50,Hep 3B2,85.1 µM
same,IC50,HepG2,111 µM
same,IC50,U2OS,58.5 µM
same,IC50,SJSA-1,39.4 µM
same,IC50,MCF7,32.3 µM
same,IC50,PC-3,24.7 µM
same,IC50,DU-145,130 µM
same,Activity,A549 [5],58.7%
same,Activity,A549 [6],33.3%
same,Activity,A549 [7],8%
same,Activity,A549 [8],74%
same,Activity,A549 [9],18.8%
same,Activity,A549 [10],7.2%
same,Activity,A549 [11],inactive
same,Activity,A549 [12],64.2%
same,Activity,A549 [13],29%
same,Activity,A549 [14],6.9%
same,Activity,A549 [15],98.6%
same,Activity,A549 [16],0.3%
same,Activity,A549 [17],0.3%
same,Activity,A549 [18],0.8%
same,Activity,A549 [19],inactive
same,Activity,A549 [20],inactive
same,Activity,A549 [21],inactive
same,Activity,A549 [22],inactive
same,Activity,A549 [23],inactive
same,Activity,A549 [24],inactive
same,Activity,A549 [25],inactive
same,Activity,A549 [26],inactive
CC(C)OC1OC(=O)C(Cl)=C1Nc1ccccc1 (configuration not stated),IC50,A549 [1],> 400 µM
same,IC50,BEAS-2B,> 400 µM
